Assay results: PMC8624998, “Synthesis and Antiproliferative Evaluation of 3-Chloroazetidin-2-ones with Antimitotic Activity: Heterocyclic Bridged Analogues of Combretastatin A-4” (Pharmaceuticals, 2021)
Where two headings read alike, the source gives them in different places.

Key:
SW480 cells = test: Cell viability assay, antiproliferative activity; type: cell-based, human
Method: […]. The corresponding values for 10e in these cell lines were 161 nM (HL-60), 55 nM (SW480) and 135 nM (HT-29). […] […]. SW480 colon cells expressed low levels of the UDP-glucuronosyltransferase (UGT) protein compared to expression levels in HT-29 cells. […] […].
The human breast carcinoma cell line MCF-7 was purchased from the European Collection of Animal Cell Cultures (ECACC). Triple negative breast cancer Hs578T cells and its invasive variant Hs578Ts(i)8 were a kind gift from Dr. Susan McDonnell, School of Chemical and Bioprocess Engineering, University College Dublin. U266 cells were a gift from Dr. Tony McElligott, School of Medicine, St James’s Hospital, Trinity College Dublin. HT-29 cells were purchased from the European Collection of Cell Cultures (originating from a human adenocarcinoma of the colon). The human breast carcinoma cell line MDA-MB-231 and the HL-60 cells derived from a patient with acute myeloid leukaemia were both obtained from ECACC (Salisbury, UK). The SW-480 cells were a kind gift from Dr. Brian Flood, School of Biochemistry and Immunology, Trinity College Dublin. HEK-293T (normal epithelial embryonic kidney cells) were cultured in Dulbecco’s Modified Eagle’s Medium (DMEM) with GlutaMAXTM-I in the absence of non-essential amino acids. Human breast cancer MCF-7 cells and multiple myeloma U266 cells were cultured in Minimum Essential Media (MEM) with GlutaMAX™-I, supplemented with 1% (v/v) non-essential amino acids, 10% 2(v/v) foetal bovine serum (FBS) and 1% (v/v) penicillin/streptomycin 5000 U/mL. MDA-MB-231 cells were maintained in DMEM supplemented with 10% (v/v) foetal bovine serum, 2 mM L-glutamine and 100 μg/mL penicillin/streptomycin (complete medium). Colon cancer HT-29 and SW-480 and triple negative breast cancer Hs578T and its invasive variant Hs578T8i were cultured in DMEM with GlutaMAX™-I, with the same supplement in the absence of non-essential amino acids. Leukaemia HL-60 cancer cells were cultured in Roswell Park Memorial Institute Media (RPMI-1640) with GlutaMAX™-I, supplemented with 10% FCS media, and 100 μg/mL penicillin/streptomycin as above. Cell numbers were monitored using a haemocytometer. Cell culture flasks were incubated in a humidified incubator (5% CO2/95% air) at 37 °C. All cell lines were sub-cultured three times per week with trypsinisation using TrypLE Express (1X) required for adherent cell lines.
. All stock solutions and serial dilution in ethanol/DMSO were stored at -20 °C. All cells were seeded at a density of 2.5 × 10^4 cells/mL in a 96-well plate (200 μL per well). The cells were incubated in a […] atmosphere at 37 °C for 24 h, then treated with test compound (2 μL of stock solutions per 200-microlitre well) in ethanol to obtain a concentration range of 1 nM–200 μM for the study. The plates were then re-incubated for a further 72 h. Control wells contained an equivalent volume of the vehicle ethanol or DMSO (1% v/v). MTT cell viability assay: The culture medium was removed, and the cells were washed with phosphate buffered saline (PBS, […]). MTT (dissolved in PBS, […]) was added to obtain a final concentration of MTT (1 mg/mL). Cells were incubated at 37 °C for 3 h in the dark. Solubilisation was commenced by the addition of DMSO ([…]) and the cells were maintained at 20 °C in the dark for 20 min before reading the absorbance to ensure complete colour diffusion. The absorbance value of control cells (no added compound) was set to 100% cell viability and absorbance versus cell density per well was determined to assess cell viability using Graph-Pad Prism software. AlamarBlue cell viability assay: Cells were seeded in 96-well plates (e.g., MCF-7, 5 × 10^3 cells/well) and (HT-29 cells, 1 × 10^3 cells/well) and (HL-60 cells, 1 × 10^4 cells/well) with a total volume per well of 200 µL. After 24 h, cells were treated in triplicate with serial dilutions of CA-4 or β-lactam analogues (0.001–100 μM), medium alone or vehicle (1% ethanol (v/v)). […]

MCF-7 cells = test: Lactate dehydrogenase (LDH) assay for cytotoxicity; type: cell-based; conditions: Homo sapiens, MCF7; MCF-7, compound concentration 10 μM, 24 h; read-out: Lactate Dehydrogenase assay: % cell lysis (cell death)
Method: The toxicity and selectivity of 10n towards normal cells was investigated in the non-tumourigenic cell line HEK-293T (normal human epithelial embryonic kidney cells). […] The cytotoxic effect of selected 3-chloro-β-lactams 10e, 10f, 10i, 10n and 3,3-dichloro-β-lactams 11e and 11n in MCF-7 cells was initially determined using the lactate dehydrogenase (LDH) assay.
The cytotoxicity of selected compounds was determined using the CytoTox 96 non-radioactive cytotoxicity assay (Promega Corporation, Madison, WI, USA). Briefly, MCF-7 cells were seeded in a 96-well plate (200 μL per well), at a density of 2.5 × 10^4 cells/mL, and incubated for 24 h. The cells were then treated with selected β-lactam compounds as described above for the cell viability assay. […] Supernatant (50 μL) was removed from each well to a 96-well plate. Reconstituted ‘CytoTox 96® Reagent (50 μL) was added to each well and the plate was placed in the dark at 20 °C for 30 min. ‘Stop solution’ (50 μL) was added to each well and the samples were analysed at 490 nm using a Dynatech MR5000 plate reader. The percentage cell death at 10 μM was calculated.

A549/ATCC = test: NCI-60 5 dose screen, NSC Lung Cancer; type: cell-based; conditions: Homo sapiens
DU-145 = test: NCI-60 5 dose screen, Prostate cancer; type: cell-based; conditions: Homo sapiens
NCI-H460 = test: NCI-60 5 dose screen, NSC Lung Cancer; type: cell-based; conditions: Homo sapiens
SN12C = test: NCI-60 5 dose screen, Renal Cancer; type: cell-based; conditions: Homo sapiens
SK-MEL-5 = test: NCI-60 5 dose screen, Melanoma; type: cell-based; conditions: Homo sapiens
HCT-116 = test: NCI-60 5 dose screen, Colon Cancer; type: cell-based; conditions: Homo sapiens
M14 = test: NCI-60 5 dose screen, Melanoma; type: cell-based; conditions: Homo sapiens
BT-549 = test: NCI-60 5 dose screen, Breast Cancer; type: cell-based; conditions: Homo sapiens
786-0 = test: NCI-60 5 dose screen, Renal Cancer; type: cell-based; conditions: Homo sapiens
NCI-H552 = test: NCI-60 5 dose screen, NSC Lung Cancer; type: cell-based; conditions: Homo sapiens
[1] = Homo sapiens, SW480, 72 h; read-out: SW480 IC50

IC50 (SW480 cells; [1]) [nM]	Structure (SMILES)	cytotoxicity at 10 µM (MCF-7 cells) [%]	GI50 (A549/ATCC; A549/ATCC, read-out: GI50) [nM]	GI50 (DU-145; read-out: GI50) [nM]	GI50 (NCI-H460; read-out: GI50) [nM]	GI50 (SN12C; read-out: GI50) [nM]	GI50 (SK-MEL-5; read-out: GI50) [nM]	GI50 (HCT-116; read-out: GI50) [nM]	GI50 (M14; read-out: GI50) [nM]	GI50 (BT-549; read-out: GI50) [nM]	GI50 (786-0; read-out: GI50) [nM]	GI50 (NCI-H552; NCI-H552, read-out: GI50) [nM]	other results
55 ± 4	COc1ccc([C@H]2[C@H](Cl)C(=O)N2c2cc(OC)c(OC)c(OC)c2)cc1 (relative stereo) [Compound 10e trans, Trans-3-chloro-1-(3,4,5-trimethoxyphenyl)-4-(4-methoxyphenyl) azetidin-2-one]	5	78.5	44.6	306	83.7	31.2	39.7	39.6	174	69.4	20.7	–
37 ± 5	COc1ccc(C2C(Cl)C(=O)N2c2cc(OC)c(OC)c(OC)c2)cc1O (centres unmarked) [Compound 10n, 3-Chloro-4-(3-hydroxy-4-methoxy-phenyl)-1-(3,4,5-trimethoxyphenyl)azetidin-2-one]	17	–	–	–	–	–	–	–	–	–	–	–
–	COc1ccc(C2N(c3cc(OC)c(OC)c(OC)c3)C(=O)C2(Cl)Cl)cc1O (centres unmarked) [Compound 11n, 3,3-Dichloro-4-(3-hydroxy-4-methoxyphenyl)-1-(3,4,5-trimethoxyphenyl)azetidin-2-one]	8	–	–	–	–	–	–	–	–	–	–	IC50 (SW480 cells; Homo sapiens, SW480, 72 h, read-out: SW480 IC50): 44 ± 8 nM; GI50 (A549/ATCC; A549): 38.2 nM; GI50 (DU-145): 35.9 nM; GI50 (NCI-H460): 35.4 nM; GI50 (SN12C): 44.6 nM; GI50 (SK-MEL-5): 22.5 nM; GI50 (HCT-116): 32.8 nM; GI50 (M14): 31.3 nM; GI50 (BT-549): 39.7 nM; GI50 (786-0): 41.2 nM; GI50 (NCI-H552): 16.4 nM
–	CCSc1ccc(C2C(Br)C(=O)N2c2cc(OC)c(OC)c(OC)c2)cc1 (centres unmarked) [Compound 16d, 3-Bromo-4-(4-(ethylthio)phenyl)-1-(3,4,5-trimethoxyphenyl)azetidin-2-one]	–	598	349	539	925	86.1	222	128	525	340	158	–

Structure (SMILES)	IC50 (SW480 cells; [1]) [nM]	cytotoxicity at 10 µM (MCF-7 cells) [%]	GI50 (A549/ATCC; A549/ATCC, read-out: GI50) [nM]	GI50 (DU-145; read-out: GI50) [nM]	GI50 (NCI-H460; read-out: GI50) [nM]	GI50 (SN12C; read-out: GI50) [nM]	GI50 (SK-MEL-5; read-out: GI50) [nM]	GI50 (HCT-116; read-out: GI50) [nM]	GI50 (M14; read-out: GI50) [nM]	GI50 (BT-549; read-out: GI50) [nM]	GI50 (786-0; read-out: GI50) [nM]	GI50 (NCI-H552; NCI-H552, read-out: GI50) [nM]	other results
COc1ccc(/C=C\c2cc(OC)c(OC)c(OC)c2)cc1O [CA-4, Combretastatin A-4]	3 ± 0.8	12	–	–	–	–	–	–	–	–	–	–	–
